Measurements from PMC13415951 (Journal of Experimental Botany, 2026).
Where a chain is given by its changes, count along the chain named.

What was measured:
[1] = tested on: roots of wheat cultivar Apogee seedlings; assay: Extracts from wheat roots exposed to mycotoxin, LC-MS/MS; type: in vivo, Triticum aestivum; details: 24 h
Protocol: Seedlings of Apogee and B. distachyon with roots 1–2 cm long were incubated in full-strength MS without sucrose and containing 50 mg l^−1 DON and/or either 50 mg l^−1 CUL (Apogee) or 10 mg l^−1 CUL (B. distachyon). The seedlings were placed into sterile 2 ml tubes containing 500 µl medium such that only the roots were submerged. After 24 h incubation under the same conditions as specified above for the elongation assays, the roots were cut from the seedlings, washed with 10% ethanol, briefly dried with tissue paper, and weighed. The roots were then ground in the Retsch Ball Mill MM 400 for 1 min at 30× s^−1 using two 5 mm steel balls, after which 500 µl methanol was added and the roots were extracted for 2 h at room temperature. The concentrations of DON, D3G, CUL, and CUL-glucosides were determined by LC-MS/MS.
DON, D3G, CUL, and CUL-glucosides were measured on a 6500+ QTrap MS/MS instrument (Sciex) coupled to an Agilent 1290 UHPLC system. A Kinetex C18 column (150×2.1 mm, 2.6 µm particle size; Phenomenex, Torrance, USA) was used for separation at 30 °C. […] DON and D3G were detected in negative ion mode first, and after 4.5 min the polarity was changed to positive electrospray mode to detect CUL and CUL-glucosides. […] D3G was determined with the [M+CH3COO]^− ion as the precursor (DP −80 V) with the following SRM settings: m/z 517.2 > 427.1 (CE −30 eV) and m/z 517.2 > 59.1 (CE −85 eV). […]

[2] = biological target: T1, OsUGT79 H122A/L123A/Q202A (Oryza sativa subsp. japonica, UniProt Q7XT97, H122A/L123A/Q202A); assay: biochemical; type: biochemical
T1 sequence (Q7XT97 1-466 H122A/L123A/Q202A): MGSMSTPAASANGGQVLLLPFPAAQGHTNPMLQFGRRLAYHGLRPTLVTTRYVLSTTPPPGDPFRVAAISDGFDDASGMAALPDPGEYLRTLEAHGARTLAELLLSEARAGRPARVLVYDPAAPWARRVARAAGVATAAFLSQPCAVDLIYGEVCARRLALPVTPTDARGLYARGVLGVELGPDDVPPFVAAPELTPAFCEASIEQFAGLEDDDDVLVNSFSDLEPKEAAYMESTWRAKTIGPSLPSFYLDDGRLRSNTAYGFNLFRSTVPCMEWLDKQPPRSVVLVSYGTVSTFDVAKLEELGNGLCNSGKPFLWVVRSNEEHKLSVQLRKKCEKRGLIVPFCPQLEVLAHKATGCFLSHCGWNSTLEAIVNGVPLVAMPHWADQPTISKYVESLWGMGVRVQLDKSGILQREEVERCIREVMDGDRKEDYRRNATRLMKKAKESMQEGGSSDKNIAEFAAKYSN

[3] = tested on: human glucuronosyltransferases in liver microsomes; set-up: method as in Woelflingseder et al., 2019; details: ref Woelflingseder et al., 2019; cited from earlier work
[4] = biological target: T2, OsUGT79 (Oryza sativa subsp. japonica, UniProt Q7XT97); assay: biochemical; type: biochemical
T2 construct: made in house; host or cells: E. coli
T2 sequence (Q7XT97 1-466): T1 sequence (Q7XT97 1-466 H122A/L123A/Q202A) with A122H, A123L, A202Q

Question: Which “Effect of CUL on DON uptake by the roots” value ([1]; 50 mg l^−1 DON with 50 mg l^−1 CUL) does the source give for `CC1(C)CCC[C@]2(C)[C@@H]3[C@H]1[C@@H](O)[C@@]2(C)C[C@H]3O` [CUL, culmorin] here?
Answer: The value was “did not inhibit DON uptake”.

Question: And the “Reduction in the D3G concentration in the roots caused by CUL” value ([1]; 50 mg l^−1 DON with 50 mg l^−1 CUL vs DON alone)?
Answer: The value was about 6 fold.

Question: What about the “K iu of CUL (uncompetitive inhibition, DON as variable substrate)” value [2] of the same compound?
Answer: Its value is 217 µM.

Question: What about the Ki [2] of the same compound?
Answer: The Ki was 65 µM.

Question: What about the “Effect on DON-glucuronidation” value [3] of the same compound?
Answer: Its value is “suppresses DON-glucuronidation”.

Question: What about the “K iu of CUL (uncompetitive inhibition, DON as variable substrate)” value [4] of the same compound?
Answer: Its value is 208 µM.

Question: And the “K iu of CUL (uncompetitive inhibition, UDP-glucose as variable substrate)” value [4]?
Answer: Its value is 124 µM.

Question: And the Ki [4]?
Answer: The Ki was 146 µM.
